Data on 25 compounds can be found in US20250179059A1 (The Regents of the University of California, priority 2021, published 2025).

Where two headings read alike, the source gives them in different places.

The subject of assay [1] is human SKM-1 acute myeloid leukemia cells. The assay is described as follows: SKM-1 antiproliferation cell-based assay (ATPlite). The settings on record: Homo sapiens. An outline of the steps: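 Log-phase cells in RPMI 1640/15% FBS were seeded at 34722 cells/mL and exposed for 4 days to nine-concentration DMSO serial dilutions in triplicate. Viability was read as ATP luminescence (ATPlite 1step), and IC50 values came from variable-slope non-linear regression.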
Background: ATP-based viability assays read luminescence as a measure of living cells.

Assay [2] deals with T1, human BRD4 bromodomain II (Homo sapiens, UniProt O60885).
T1 construct: human BRD4 bromodomain II [based on Genbank NM_058243, residues 349-460]; host or cells: E. coli
The assay is described as follows: Bromodomain binding assay (AlphaScreen), BRD4 BDII. The method in brief: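 Inhibition of acetyl-H4 peptide binding to human BRD4 bromodomains is measured by bead-based proximity (AlphaScreen) in pH 7.5 HEPES buffer containing 0.05% CHAPS and 0.1% BSA. Ten compound concentrations in 3-fold steps give competitive binding IC50s.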

[3] abbreviates: SKM-1, 96 h, SKM-1 antiproliferation assay, 4 days, Table C2.
[4] abbreviates: AlphaScreen assay, Table C2, read-out: BRD4 BDII IC50.
The mark [5] stands for this setting: SKM-1, SKM-1 antiproliferation assay.
Where [6] appears, read: BRD4 BDII AlphaScreen assay, read-out: BRD4 BD2 IC50.

As a reminder, the GI50 is the concentration giving 50% growth inhibition. A high value points to lower sensitivity of the cells. The IC50 is the concentration that inhibits the measured activity by half. In assay [1] (setting [3]), `CC(=O)Nc1cc(-c2cc(F)cc(-c3ccc(-n4ccn(C)c4=O)c(Cl)c3)c2O)cc(N2CC[C@H](N(C)C)C2)n1` [Example 515, (S)-N-(4-(3′-chloro-5-fluoro-2-hydroxy-4′-(3-methyl-2-oxo-2,3-dihydro-1H-imidazol-1-yl)-[1,1′-biphenyl]-3-yl)-6-(3-(dimethylamino)pyrrolidin-1-yl)pyridin-2-yl)acetamide] registered a GI50 of 0.3 to 30 nM. In addition, the IC50 in assay [2] (setting [4]) was in the range of 1 to 10 nM.
The compound `Cc1cc(-c2ccc(-n3ccn(C)c3=O)c(Cl)c2)c(O)c(-c2cc(Cl)c(F)c(N3CCN(C(C)(C)C)CC3)c2)n1` [Example 1010, 1-(4-(2-(3-(4-(tert-butyl)piperazin-1-yl)-5-chloro-4-fluorophenyl)-3-hydroxy-6-methylpyridin-4-yl)-2-chlorophenyl)-3-methyl-1H-imidazol-2(3H)-one] had a GI50 in assay [1] (setting [5]) of 0.3 to 30 nM. For the same compound, the concentration for half-maximal inhibition (IC50) in assay [2] (setting [6]) was 0.01 to 1 nM.
`COc1ncc(-c2cc(F)cc(-c3ccc(-n4ccn(C)c4=O)c(Cl)c3)c2O)cc1N1CC(O)(CO)C1` [Example 838, 1-(3-chloro-5′-fluoro-2′-hydroxy-3′-(5-(3-hydroxy-3-(hydroxymethyl)azetidin-1-yl)-6-methoxypyridin-3-yl)-[1,1′-biphenyl]-4-yl)-3-methyl-1H-imidazol-2(3H)-one] had a GI50 in assay [1] (setting [3]) of 30 to 300 nM. Also, the IC50 in assay [2] (setting [4]) lay within 0.01 to 1 nM.
Turning to `Cn1ccn(-c2ccc(-c3cc(F)cc(-c4ccnc(N5CCN(CC6CC6)CC5)c4)c3O)cc2Cl)c1=O` [Example 470, 1-(3-chloro-3′-(2-(4-(cyclopropylmethyl)piperazin-1-yl)pyridin-4-yl)-5′-fluoro-2′-hydroxy-[1,1′-biphenyl]-4-yl)-3-methyl-1H-imidazol-2(3H)-one], in assay [1] (setting [3]), the 50% growth inhibitory concentration (GI50) was 0.3 to 30 nM. Further, in assay [2] (setting [4]), the IC50 lay within 1 to 10 nM.
As for `Cc1ncc(-c2cc(F)cc(-c3ccc(-n4ccn(C)c4=O)c(Cl)c3)c2O)cc1N1CC(C)(C)[C@@](C)(O)C1` [Example 885], in assay [1] (setting [5]), the GI50 was in the range of 30 to 300 nM. Moreover, the half-maximal inhibitory concentration (IC50) in assay [2] (setting [6]) lay within 1 to 10 nM.
In assay [1] (setting [3]), `O=C1CCCN1c1ccc(-c2cccc(-c3ccnc(N4CCNCC4)c3)c2O)cc1F` [Example 238, 1-(3-fluoro-2′-hydroxy-3′-(2-(piperazin-1-yl)pyridin-4-yl)-[1,1′-biphenyl]-4-yl)pyrrolidin-2-one] showed a GI50 of 30 to 300 nM. Moreover, the IC50 in assay [2] (setting [4]) lay in the range of 1 to 10 nM.
For `CC(=O)Nc1ccc(-c2cccc(-c3ccnc(N4CC5(CNC5)C4)c3)c2O)cc1Cl` [Example 283, N-(3′-(2-(2,6-diazaspiro[3.3]heptan-2-yl)pyridin-4-yl)-3-chloro-2′-hydroxy-[1,1′-biphenyl]-4-yl)acetamide], in assay [1] (setting [3]), the GI50 lay within 300 to 3000 nM. Also, in assay [2] (setting [4]), the half-inhibitory concentration (IC50) fell in the range of 10 to 100 nM.
Consider `Cc1ncc(-c2cc(F)cc(-c3ccc(-n4ccn(C)c4=O)c(Cl)c3)c2O)cc1N1CC[C@@]2(CCCN2C(C)C)C1` [Example 955, (S)-1-(3-chloro-5′-fluoro-2′-hydroxy-3′-(5-(1-isopropyl-1,7-diazaspiro[4.4]nonan-7-yl)-6-methylpyridin-3-yl)-[1,1′-biphenyl]-4-yl)-3-methyl-1,3-dihydro-2H-imidazol-2-one], for which the GI50 in assay [1] (setting [5]) lay in the range of 0.3 to 30 nM. Further, the half-inhibitory concentration (IC50) in assay [2] (setting [6]) was in the range of 1 to 10 nM.
In assay [1] (setting [5]), `Cn1ccn(-c2ccc(-c3cc(F)cc(-c4cccc(-c5cccc(CN)c5)c4)c3O)cc2Cl)c1=O` [Example 866] came in with a GI50 of 300 to 3000 nM. In assay [2] (setting [6]), the IC50 was 10 to 100 nM.
On to `COCC(C)(C)N1CCN(c2cccc(-c3cc(F)cc(-c4ccc(-n5ccn(C)c5=O)c(Cl)c4)c3O)c2)CC1` [Example 830, 1-(3-chloro-5′-fluoro-2′-hydroxy-3″-(4-(1-methoxy-2-methylpropan-2-yl)piperazin-1-yl)-[1,1′:3′,1″-terphenyl]-4-yl)-3-methyl-1H-imidazol-2(3H)-one], for which the GI50 in assay [1] (setting [3]) fell in the range of 0.3 to 30 nM. Also, the IC50 in assay [2] (setting [4]) was 1 to 10 nM.
Turning to `[2H]C([2H])([2H])n1ccn(-c2ccc(-c3cc(F)cc(-c4ccnc(N5CC6(CNC6)C5)c4)c3O)cc2Cl)c1=O` [Example 492, 1-(3′-(2-(2,6-diazaspiro[3.3]heptan-2-yl)pyridin-4-yl)-3-chloro-5′-fluoro-2′-hydroxy-[1,1′-biphenyl]-4-yl)-3-deuteromethyl-1H-imidazol-2(3H)-one], the concentration for 50% growth inhibition (GI50) in assay [1] (setting [3]) lay within 30 to 300 nM. For the same compound, in assay [2] (setting [4]), the 50% inhibitory concentration (IC50) was 1 to 10 nM.
Regarding `O=C1CCCCN1c1ccc(-c2cc(F)cc(-c3ccnc(N4CCNCC4)c3)c2O)cc1F` [Example 280, 1-(3,5′-difluoro-2′-hydroxy-3′-(2-(piperazin-1-yl)pyridin-4-yl)-[1,1′-biphenyl]-4-yl)piperidin-2-one], the GI50 in assay [1] (setting [3]) is 300 to 3000 nM. For the same compound, the 50% inhibitory concentration (IC50) in assay [2] (setting [4]) is 10 to 100 nM.
The corresponding values for `CN1CCN(c2ccc(-c3cccc(-c4cncc(N5CC6(CNC6)C5)c4)c3O)cc2Cl)C1=O` [Example 335, 1-(3′-(5-(2,6-diazaspiro[3.3]heptan-2-yl)pyridin-3-yl)-3-chloro-2′-hydroxy-[1,1′-biphenyl]-4-yl)-3-methylimidazolidin-2-one] are 300 to 3000 nM and 1 to 10 nM.
On to `Cn1ccn(-c2ccc(-c3cc(F)cc(-c4ccnc(N5CCN6CCOCC6C5)c4)c3O)cc2Cl)c1=O` (centres unmarked) [Example 647, 1-(3-chloro-5′-fluoro-3′-(2-(hexahydropyrazino[2,1-c][1,4]oxazin-8(1H)-yl)pyridin-4-yl)-2′-hydroxy-[1,1′-biphenyl]-4-yl)-3-methyl-1H-imidazol-2(3H)-one], for which, in assay [1] (setting [3]), the GI50 was in the range of 0.3 to 30 nM. The 50% inhibitory concentration (IC50) in assay [2] (setting [4]) lay within 0.01 to 1 nM.
In the same order, the values of `CC1CN(c2cc(-c3cccc(-c4ccc(N5CCCC5=O)c(Cl)c4)c3O)ccn2)CC(C)N1` (centres unmarked) [Example 267, 1-(3-chloro-3′-(2-(3,5-dimethylpiperazin-1-yl)pyridin-4-yl)-2′-hydroxy-[1,1′-biphenyl]-4-yl)pyrrolidin-2-one] are 30 to 300 nM and 1 to 10 nM.
As to `Cn1ccn(-c2ccc(-c3cc(F)cc(-c4ccnc(N5CCN(C6CCC6)CC5)c4)c3O)cc2Cl)c1=O` [Example 619, 1-(3-chloro-3′-(2-(4-cyclobutylpiperazin-l-yl)pyridin-4-yl)-5′-fluoro-2′-hydroxy-[1,1′-biphenyl]-4-yl)-3-methyl-1H-imidazol-2(3H)-one], the GI50 in assay [1] (setting [3]) lay in the range of 0.3 to 30 nM. In addition, the concentration for half-maximal inhibition (IC50) in assay [2] (setting [4]) was in the range of 0.01 to 1 nM.
`COc1c(-c2cccc(N3CCN(C(C)(C)C)CC3)c2)cc(F)cc1-c1ccc(-n2ccn(C)c2=O)c(Cl)c1` [Example 859] returned a GI50 in assay [1] (setting [5]) of 30 to 300 nM. Besides, the half-inhibitory concentration (IC50) in assay [2] (setting [6]) lay in the range of 10 to 100 nM.
Regarding `Cn1ccn(-c2ccc(-c3cc(F)cc(-c4ccnc(N5CCC(C)(NC(=O)OC(C)(C)C)C5)c4)c3O)cc2Cl)c1=O` (centres unmarked) [Example 776, tert-butyl (1-(4-(3′-chloro-5-fluoro-2-hydroxy-4′-(3-methyl-2-oxo-2,3-dihydro-1H-imidazol-1-yl)-[1,1′-biphenyl]-3-yl)pyridin-2-yl)-3-methylpyrrolidin-3-yl)carbamate], the 50% growth inhibitory concentration (GI50) in assay [1] (setting [3]) is 30 to 300 nM. Also, in assay [2] (setting [4]), the IC50 lay in the range of 10 to 100 nM.
With `Cn1ccn(-c2ccc(-c3cc(F)cc(-c4cccc(N5CC6CNCC6C5)c4)c3O)cc2Cl)c1=O` (centres unmarked) [Example 943, 1-(3-chloro-5′-fluoro-3″-(hexahydropyrrolo[3,4-c]pyrrol-2(1H)-yl)-2′-hydroxy-[1,1′:3′,1″-terphenyl]-4-yl)-3-methyl-1,3-dihydro-2H-imidazol-2-one], in assay [1] (setting [5]), the GI50 was in the range of 0.3 to 30 nM. Also, the half-inhibitory concentration (IC50) in assay [2] (setting [6]) was in the range of 1 to 10 nM.
In turn, `Cn1ccn(-c2ccc(-c3cc(F)cc(-c4ccnc(N5CC6CCC(C5)C6(C)O)c4)c3O)cc2Cl)c1=O` (centres unmarked) [Example 785, 1-(3-chloro-5′-fluoro-2′-hydroxy-3′-(2-(8-hydroxy-8-methyl-3-azabicyclo[3.2.1]octan-3-yl)pyridin-4-yl)-[1,1′-biphenyl]-4-yl)-3-methyl-1H-imidazol-2(3H)-one] gave a GI50 in assay [1] (setting [3]) of 30 to 300 nM. The half-inhibitory concentration (IC50) in assay [2] (setting [4]) lay within 1 to 10 nM.
Turning to `Cn1ccn(-c2ccc(-c3cc(F)cc(-c4cc(N5CC[C@H](N)C5)c5cn[nH]c5c4)c3O)cc2Cl)c1=O` [Example 558, (S)-1-(3′-(4-(3-aminopyrrolidin-1-yl)-1H-indazol-6-yl)-3-chloro-5′-fluoro-2′-hydroxy-[1,1′-biphenyl]-4-yl)-3-methyl-1H-imidazol-2(3H)-one], the GI50 in assay [1] (setting [3]) lay in the range of 0.3 to 30 nM. For the same compound, the half-inhibitory concentration (IC50) in assay [2] (setting [4]) is 1 to 10 nM.
Take `[2H]C([2H])([2H])n1ccn(-c2ccc(-c3cc(F)cc(-c4cccc(N5CCN(C(C)(C)C)CC5)c4)c3O)cc2Cl)c1=O` [Example 886]: the concentration for 50% growth inhibition (GI50) in assay [1] (setting [5]) fell in the range of 0.3 to 30 nM. Moreover, in assay [2] (setting [6]), the half-inhibitory concentration (IC50) is 1 to 10 nM.
Take `Cn1cc(-c2cc(F)cc(-c3ccc(-n4ccn(C)c4=O)c(Cl)c3)c2O)cc(N2CCNCC2)c1=O` [Example 437, 5-(3′-chloro-5-fluoro-2-hydroxy-4′-(3-methyl-2-oxo-2,3-dihydro-1H-imidazol-1-yl)-[1,1′-biphenyl]-3-yl)-1-methyl-3-(piperazin-1-yl)pyridin-2(1H)-one]: the GI50 in assay [1] (setting [3]) was in the range of 0.3 to 30 nM. Besides, the half-inhibitory concentration (IC50) in assay [2] (setting [4]) lay within 1 to 10 nM.
In the same order, the values of `CN1CCN(c2ccc(-c3cccc(-c4ccc(CO)c(N5CCNCC5)c4)c3O)cc2Cl)C1=O` [Example 317, 1-(3-chloro-2′-hydroxy-4″-(hydroxymethyl)-3″-(piperazin-1-yl)-[1,1′:3′,1″-terphenyl]-4-yl)-3-methylimidazolidin-2-one] are 30 to 300 nM and 1 to 10 nM.
In the same order, the values of `CN1CCN(c2ccc(-c3cc(F)cc(-c4cc(N5CCNCC5)c5cn[nH]c5c4)c3O)cc2Cl)C1=O` [Example 458, 1-(3-chloro-5′-fluoro-2′-hydroxy-3′-(4-(piperazin-1-yl)-1H-indazol-6-yl)-[1,1′-biphenyl]-4-yl)-3-methylimidazolidin-2-one] are 0.3 to 30 nM and 1 to 10 nM.
